Reference: patent US9221756B2, “Pyrrole derivatives” (priority 2011, dated 2015)

Legend:
[1] = test system: Human lung epithelial cells (A549); details: concentrations tested, up to approximately 150 times the therapeutic IC50 value
Perfringolysin O (PFO) = Perfringolysin O (PFO) (Clostridium perfringens, UniProt P0C2E9); assay: cell-based
pneumolysin [2] = target: T1, pneumolysin (Streptococcus pneumoniae serotype 2, UniProt Q04IN8); assay: Ex vivo meningitis assay: effect of pneumolysin on ciliary function of cultured ependymal cells; type: cell-based; details: rat ependymal cells
Source text: (§1) The ependymal ciliated cells line the cerebral ventricles of the brain and the central canal of the spinal cord and are covered with cilia responsible for the circulation of the cerebrospinal fluid (CSF) around the central nervous system. This layer acts as a selective brain barrier to and from the cerebrospinal fluid and plays a role in controlling the CSF volume. […] This model is based on culturing and differentiating ciliated ependymal cells from neonate rat brains, which recreate the in vivo situation, where cells lining the brain ventricles, are exposed to S. pneumoniae and its toxic products.
(§2) Ependymal cell cultures were prepared by the method previously described [Microb. Pathog. (1999) 27 303-309]. Tissue culture trays were coated with bovine fibronectin and incubated at 37° C. in 5% (v/v) CO2 for 2 h before use. […]
(§3) After approximately two weeks, the cells were fully ciliated and ready for experiments. […] Beating cilia were recorded before and after exposure over 30 min, with a digital high-speed video camera at a rate of 500 frames/s. The recorded video sequences were played back at reduced frame rates and the ciliary beat frequency (CBF) was determined by the following equation: […]

[3] = test system: Streptococcus pneumoniae strain D39; assay: In vivo efficacy assay using a mouse pneumonia model; details: MF1 mice
Listeriolysin O (LLO) = Listeriolysin O (LLO) (Listeria monocytogenes serovar 1/2a, UniProt P13128); assay: Inhibition of the haemolytic activity of Listeriolysin O; type: cell-based; details: toxin LLO; haemolysis assay protocol of Section A
Anthrolysin O (ALO) = Anthrolysin O (ALO) (Bacillus anthracis, UniProt A0A6L7HHW7); assay: cell-based
Suilysin (SLY) = Suilysin (SLY) (Streptococcus suis, UniProt Q55996); assay: Inhibition of the haemolytic activity of Suilysin; type: cell-based; details: toxin SLY; haemolysis assay protocol of Section A
Streptolysin O (SLO) = target: T2, Streptolysin O (SLO) (Streptococcus pyogenes serotype M3, UniProt P0DF97); assay: Inhibition of the haemolytic activity of Streptolysin O; type: cell-based, Group A Streptococci; details: toxin SLO; haemolysis assay protocol of Section A
T2 sequence (P0DF97 34-571): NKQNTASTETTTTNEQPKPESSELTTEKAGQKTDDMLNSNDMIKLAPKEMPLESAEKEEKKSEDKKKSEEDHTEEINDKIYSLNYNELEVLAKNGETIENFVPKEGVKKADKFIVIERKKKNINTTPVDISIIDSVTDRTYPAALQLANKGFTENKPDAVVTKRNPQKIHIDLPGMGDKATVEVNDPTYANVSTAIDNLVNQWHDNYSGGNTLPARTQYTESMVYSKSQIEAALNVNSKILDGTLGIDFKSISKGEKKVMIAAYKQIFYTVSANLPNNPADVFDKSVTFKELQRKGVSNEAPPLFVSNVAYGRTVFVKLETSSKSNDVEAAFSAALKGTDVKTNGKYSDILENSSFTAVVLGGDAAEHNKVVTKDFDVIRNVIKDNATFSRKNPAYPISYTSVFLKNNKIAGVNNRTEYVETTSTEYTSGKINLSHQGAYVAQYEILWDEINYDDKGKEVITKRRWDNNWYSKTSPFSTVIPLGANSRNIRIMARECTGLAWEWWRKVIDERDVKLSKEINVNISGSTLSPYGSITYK

[4] = target: T3, S. pneumoniae cell lysate containing native pneumolysin (Streptococcus pneumoniae serotype 2, UniProt Q04IN8); assay: Ex vivo meningitis assay: effect of bacterial lysate on ciliary function of cultured ependymal cells; type: cell-based; details: rat ependymal cells; lysate from penicillin-lysed S. pneumoniae; FIG. 2.B
T3 construct: S. pneumoniae cell lysate containing native pneumolysin; endogenous in cells
Source text: as §1, §2, §3

pneumolysin [5] = target: T1, pneumolysin; assay: Inhibition of the haemolytic activity of pneumolysin (sheep erythrocytes); type: cell-based; details: IC50, inhibition of pneumolysin-induced haemolysis of sheep erythrocytes
pneumolysin [6] = target: T1, pneumolysin; assay: Inhibition of pneumolysin-induced lactate dehydrogenase release from A549 cells; type: cell-based
[7] = mice receiving the compound alone; highest concentration of UL1-012 (16 mg/kg i.v. every 6 h)

T1 sequence (Q04IN8 whole entry): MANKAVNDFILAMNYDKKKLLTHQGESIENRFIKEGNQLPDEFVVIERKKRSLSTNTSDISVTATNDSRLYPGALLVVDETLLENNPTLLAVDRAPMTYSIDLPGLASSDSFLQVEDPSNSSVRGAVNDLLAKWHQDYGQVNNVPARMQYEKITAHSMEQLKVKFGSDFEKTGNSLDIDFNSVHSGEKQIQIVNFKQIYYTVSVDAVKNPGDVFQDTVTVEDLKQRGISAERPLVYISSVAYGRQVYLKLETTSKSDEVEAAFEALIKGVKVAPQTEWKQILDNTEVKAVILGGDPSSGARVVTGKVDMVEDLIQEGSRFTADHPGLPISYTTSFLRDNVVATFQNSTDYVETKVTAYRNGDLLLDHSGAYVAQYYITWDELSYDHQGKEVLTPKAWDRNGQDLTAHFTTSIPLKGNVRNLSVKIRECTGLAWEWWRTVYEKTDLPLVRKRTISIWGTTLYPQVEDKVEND
Chain of Perfringolysin O (PFO) (P0C2E9 29-500 limits assumed): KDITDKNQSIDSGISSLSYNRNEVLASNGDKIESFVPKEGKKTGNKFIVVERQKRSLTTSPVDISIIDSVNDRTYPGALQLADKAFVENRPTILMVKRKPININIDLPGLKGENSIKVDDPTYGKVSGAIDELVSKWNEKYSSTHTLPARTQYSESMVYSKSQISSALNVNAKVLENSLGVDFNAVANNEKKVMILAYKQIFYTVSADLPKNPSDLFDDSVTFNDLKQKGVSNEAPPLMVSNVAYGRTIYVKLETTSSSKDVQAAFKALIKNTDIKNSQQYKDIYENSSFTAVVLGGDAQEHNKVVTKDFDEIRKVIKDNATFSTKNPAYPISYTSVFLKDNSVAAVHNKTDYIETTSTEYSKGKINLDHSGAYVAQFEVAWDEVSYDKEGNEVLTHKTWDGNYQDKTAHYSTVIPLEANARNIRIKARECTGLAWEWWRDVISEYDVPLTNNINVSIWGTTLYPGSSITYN
Chain of Listeriolysin O (LLO) (P13128 25-529): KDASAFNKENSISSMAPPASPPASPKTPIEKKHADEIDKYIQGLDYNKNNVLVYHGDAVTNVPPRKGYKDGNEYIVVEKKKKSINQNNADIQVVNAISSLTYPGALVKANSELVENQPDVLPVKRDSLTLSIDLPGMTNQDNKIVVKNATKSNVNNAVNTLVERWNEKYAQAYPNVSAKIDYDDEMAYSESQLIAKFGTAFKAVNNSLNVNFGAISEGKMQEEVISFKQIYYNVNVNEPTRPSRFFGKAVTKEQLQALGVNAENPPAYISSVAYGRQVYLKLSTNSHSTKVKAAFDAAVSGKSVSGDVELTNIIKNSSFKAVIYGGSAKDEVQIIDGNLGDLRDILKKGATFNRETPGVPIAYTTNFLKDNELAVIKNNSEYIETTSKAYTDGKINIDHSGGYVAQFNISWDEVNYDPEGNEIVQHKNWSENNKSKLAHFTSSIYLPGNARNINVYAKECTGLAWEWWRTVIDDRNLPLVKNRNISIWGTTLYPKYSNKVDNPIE
Chain of Suilysin (SLY) (Q55996 28-497 limits assumed): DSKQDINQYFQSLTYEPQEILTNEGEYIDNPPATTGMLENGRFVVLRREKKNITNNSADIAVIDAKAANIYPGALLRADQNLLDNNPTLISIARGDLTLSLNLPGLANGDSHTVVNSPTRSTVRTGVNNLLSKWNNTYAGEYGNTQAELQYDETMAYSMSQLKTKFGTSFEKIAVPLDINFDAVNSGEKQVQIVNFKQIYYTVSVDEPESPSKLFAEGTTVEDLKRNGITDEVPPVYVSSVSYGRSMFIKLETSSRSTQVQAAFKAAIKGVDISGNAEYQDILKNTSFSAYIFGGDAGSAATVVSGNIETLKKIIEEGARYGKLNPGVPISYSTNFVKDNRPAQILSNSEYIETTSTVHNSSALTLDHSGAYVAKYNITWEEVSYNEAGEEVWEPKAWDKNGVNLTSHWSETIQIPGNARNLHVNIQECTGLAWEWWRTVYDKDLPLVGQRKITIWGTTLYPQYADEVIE
Chain of Anthrolysin O (ALO) (A0A6L7HHW7 35-512 limits assumed): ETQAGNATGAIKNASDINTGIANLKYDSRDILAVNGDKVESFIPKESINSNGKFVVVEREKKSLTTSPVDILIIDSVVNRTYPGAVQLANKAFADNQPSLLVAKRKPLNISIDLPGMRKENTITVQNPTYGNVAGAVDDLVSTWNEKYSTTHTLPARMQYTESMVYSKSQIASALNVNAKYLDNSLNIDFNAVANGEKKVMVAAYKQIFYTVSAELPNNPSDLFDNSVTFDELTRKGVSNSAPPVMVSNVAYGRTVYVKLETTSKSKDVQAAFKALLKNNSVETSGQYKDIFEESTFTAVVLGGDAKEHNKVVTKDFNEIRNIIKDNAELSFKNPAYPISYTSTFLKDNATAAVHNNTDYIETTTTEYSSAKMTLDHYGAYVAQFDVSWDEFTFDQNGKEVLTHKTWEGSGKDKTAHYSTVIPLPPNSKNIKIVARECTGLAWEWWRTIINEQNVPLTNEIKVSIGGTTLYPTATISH
T3 sequence (Q04IN8 whole entry): as the sequence (Q04IN8 whole entry) above

Structure (SMILES)	cytotoxicity (LDH release, compound alone) [1]	IC50 (Perfringolysin O (PFO)) [µM]	ciliary beating frequency (CBF) in the presence of pneumolysin (pneumolysin [2]; UL1-012 1.56 μM-25 μM, FIG. 2.A)	survival ([3]; 4 mg/kg intravenously every 6 h, up to approximately 40 h after infection, p<0.05, FIG. 5)	survival, mice surviving at endpoint ([3]; 16 mg/kg intravenously every 6 h, 72 h post infection, p<0.05, FIG. 6) [%]	disease score (signs of disease) ([3]; 16 mg/kg intravenously every 6 h, p<0.05 at 30 h, 36 h, 60 h and 66 h post-infection, FIG. 7)	IC50 (Listeriolysin O (LLO)) [µM]	IC50 (Anthrolysin O (ALO)) [µM]	IC50 (Suilysin (SLY)) [µM]	IC50 (Streptolysin O (SLO)) [µM]	ciliary beating frequency (CBF) in the presence of bacterial lysate [4]	IC50 (pneumolysin [5]; class symbols of Table 1) [µM]	IC50 (pneumolysin [5]; specific values) [µM]	IC50 (pneumolysin [6]) [µM]	visible adverse effects [7]	ciliary beating frequency (CBF) in the presence of pneumolysin (pneumolysin [2]; UL2-001 2.00 μM, FIG. 3)	percentage of survival ([3]; 0.8 mg/kg intranasally every 6 h, 36 h to 60 h post-infection, p<0.05, FIG. 9) [%]
CCOC(=O)c1c(O)c(O)c(C(=O)N(C)C)n1-c1ccc(OC)cc1 [UL1-012, ethyl 5-(dimethylcarbamoyl)-3,4-dihydroxy-1-(4-methoxyphenyl)-1H-pyrrole-2-carboxylate]	does not exhibit cytotoxicity	< 10	No significant loss of the CBF	significant improvement in the survival	50	significant attenuation of the signs of the disease	< 10	< 10	< 10	< 10	significantly prevented the drop of the CBF	< 10	0.15	< 0.4	no visible adverse effects		
CCOC(=O)c1c(O)c(O)c(C(=O)OCC)n1-c1ccc(OC)cc1 [UL2-001, diethyl 3,4-dihydroxy-1-(4-methoxyphenyl)-1H-pyrrole-2,5-dicarboxylate]		< 10					< 10	< 10	< 10	20 to 60		< 10	0.3			No significant loss of the CBF	60
